Test results as given in PMC12481576, “Barbituric Acid Derivatives as Covalent Inhibitors of Leishmania braziliensis Dihydroorotate Dehydrogenase” (Journal of Medicinal Chemistry, 2025).
Where two headings read alike, the source gives them in different places.

Tests used:
[1] = target: LbDHODH (Leishmania braziliensis, UniProt E9AI53); experiment: biochemical; settings: for IC50: LbDHODH
Experimental: To assess the ability of compounds 2a–2i to inhibit LbDHODH via covalent bond formation with Cys^131, we initially screened them at a concentration of 100 μM under two conditions: with and without a 4-h preincubation with the enzyme.
The experiments were performed in a 96-well microplate reader (SpectraMax Plus 384, Molecular Devices, USA), containing the […] of the buffer 60 mM DCIP, 50 mM Tris pH 8.15, 150 mM KCl, 0.1% Triton X-100, 50 μM DHO and 10 μM of LbDHODH at 165 nM. The reaction was monitored every 3 s at 610 nm over a period of 60 s, in triplicate, for the control and each concentration of the inhibitor. All assays were performed without incubation (0h) and with 4-h preincubation of the inhibitor with LbDHODH, using 5% DMSO (v/v) as control. […]. […] The resulting kobs values were plotted as a function of inhibitor concentration, and the data in the initial linear region was fit to determine the slope, which is kinact/KI. All regressions were performed with GraphPad Prism 9.

[2] = target: T1, HsDHODH (Homo sapiens, UniProt Q02127); experiment: Selectivity assay: HsDHODH single-dose inhibition (DCIP reduction); assay type: biochemical
T1 construct: made in house
Experimental: […]. This finding highlights the potential of barbituric acid derivatives as selective inhibitors of LbDHODH.
Human DHODH expression and purification were conducted following a protocol previously established in our laboratory. The purification was carried out by affinity chromatography on a Ni-NTA Agarose column (Qiagen[…] Cat. No. 30210). […] The reaction was performed in triplicate, initiated by adding 195 μL of reaction buffer to 5 μL of HsDHODH protein solution for a final concentration of 20 nM enzyme. As a blank, 195 μL of reaction buffer was added to 5 μL of Buffer A. The reaction was monitored at 610 nm every 3 s over 60 s. As a control, 5 μL of enzyme was added to 195 μL of reaction medium without compound. Enzymatic velocity was calculated, and the percentage of relative enzymatic activity was determined relative to the control.

[3] = test system: Leishmania braziliensis promastigotes; experiment: Leishmanicidal activity, promastigote growth (SYBR Green, 72 h); assay type: cell-based, Leishmania (V.) braziliensis (MHOM/BR/1975/M2904); settings: Leishmania braziliensis, L. braziliensis promastigotes, max 200 μM
Experimental: The cultures were adjusted to 4 × 10^6 parasites per mL, and 50 μL of each culture was added on a test plate with 384 wells (Corning, #CLS3658), along with the controls and compounds to be tested. Previously diluted compounds in DMSO were added to plates in decreasing concentrations, with a maximum concentration of 200 μM. Parasites were exposed to a final concentration of DMSO in various dilutes (final = 0.5%), and the culture medium was used as the control for the experiment. […] After adding the lysis buffer, the plates were incubated in the dark for 2 h with gentle shaking. The readings were done using a SpectraMax M3 reader (excitation at 485 nm and emission at 535 nm).

[4] = Cell viability / cytotoxicity assay (PrestoBlue, 72 h); assay type: cell-based; settings: human; THP-1 cell line, 72 h, max 200 μM; read-out: CC50
Experimental: THP-1 cells (American Type Cell Collection, #TIB-202) were acquired in 2019 and stored frozen in liquid nitrogen. The cells were then maintained in RPMI 1640 (Thermo Fisher Scientific, #S31800–022) at 37 °C in a 5% CO2 atmosphere and routinely tested for Mycoplasma contamination by PCR using the primers 5′-[…] and 5′-[…]. To test the toxicity of compounds, 5000 cells were added to 96-well plates with a final volume of 80 μL centrifuged at 400g for 2 min and incubated with 150 ng/mL of phorbol myristate acetate (Merck, #P8139) for 48 h. The medium was replaced, and after 24 h, the compounds were added and tested at decreasing concentrations starting from 200 μM (10 μL/well). After 72 h of incubation, 10 μL of PrestoBlue Cell Viability Reagent (Thermo Fisher Scientific, #A13262) was added per well. After adding the reagent, the cells were incubated for 2 h at 37 °C in a 5% CO2 atmosphere, and fluorescence readings were performed using the SpectraMax M3 reader (excitation at 560 nm and emission at 590 nm).

[5] = 0 h, pH 8.15, read-out: LbDHODH Activity±SD (%)
[6] = 4 h, pH 8.15, read-out: LbDHODH Activity±SD (%)
[7] = IC50 0 h, without preincubation
[8] = read-out: Single dose (0h) % activity
[9] = read-out: Single dose (4h) % activity

Sequence of LbDHODH (E9AI53 entry or part of it): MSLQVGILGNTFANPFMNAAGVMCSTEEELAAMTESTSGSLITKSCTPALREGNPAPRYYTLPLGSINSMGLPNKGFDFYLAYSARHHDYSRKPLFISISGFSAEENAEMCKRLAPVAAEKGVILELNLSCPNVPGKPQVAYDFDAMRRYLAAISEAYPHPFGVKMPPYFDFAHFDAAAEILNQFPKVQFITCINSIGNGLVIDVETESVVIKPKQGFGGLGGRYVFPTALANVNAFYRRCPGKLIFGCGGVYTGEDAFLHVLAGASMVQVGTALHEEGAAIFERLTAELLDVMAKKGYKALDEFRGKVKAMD
T1 sequence (Q02127 whole entry): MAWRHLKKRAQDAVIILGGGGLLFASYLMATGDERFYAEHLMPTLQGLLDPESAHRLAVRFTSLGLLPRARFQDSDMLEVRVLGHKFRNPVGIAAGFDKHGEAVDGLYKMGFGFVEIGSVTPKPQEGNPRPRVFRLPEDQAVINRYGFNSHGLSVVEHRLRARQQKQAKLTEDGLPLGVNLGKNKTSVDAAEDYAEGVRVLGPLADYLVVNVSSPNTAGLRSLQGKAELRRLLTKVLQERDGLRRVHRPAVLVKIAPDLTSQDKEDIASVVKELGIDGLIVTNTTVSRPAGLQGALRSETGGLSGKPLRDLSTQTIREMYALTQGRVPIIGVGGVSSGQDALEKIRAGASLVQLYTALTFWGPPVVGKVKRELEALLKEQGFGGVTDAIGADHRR

`O=C1NC(=O)C(=Cc2ccc(C(=O)O)cc2)C(=O)N1` [2b, 4-((2,4,6-Trioxotetrahydropyrimidin-5(2H)-ylidene)methyl)benzoic Acid] gave an activity at 0.195312 µM [1, 5] of 98 ± 18%, an activity at 0.390625 µM [1, 5] of 96 ± 9% and an activity at 0.78125 µM [1, 5] of 100 ± 8%. For the same compound, the activity at 1.5625 µM [1, 5] was 96 ± 7%, the activity at 3.125 µM [1, 5] was 97 ± 7% and the activity at 6.25 µM [1, 5] was 94 ± 18%. The activity at 12.5 µM [1, 5] was 97 ± 10%, the activity at 25 µM [1, 5] was 72 ± 10% and the activity at 50 µM [1, 5] was 72 ± 6%. For the same compound, the activity at 100 µM [1, 5] was 65 ± 5%, the activity at 200 µM [1, 5] was 60 ± 22% and the activity at 400 µM [1, 5] was 86 ± 18%. The activity at 0.195312 µM [1, 6] was 94 ± 11%, the activity at 0.390625 µM [1, 6] was 99 ± 11% and the activity at 0.78125 µM [1, 6] was 91 ± 20%. It also gave an activity at 1.5625 µM [1, 6] of 80 ± 8%, an activity at 3.125 µM [1, 6] of 90 ± 6% and an activity at 6.25 µM [1, 6] of 83 ± 13%. The activity at 12.5 µM [1, 6] was 65 ± 4%, the activity at 25 µM [1, 6] was 66 ± 4% and the activity at 50 µM [1, 6] was 29 ± 5%. The activity at 100 µM [1, 6] was 15 ± 1%, the activity at 200 µM [1, 6] was 13 ± 6% and the activity at 400 µM [1, 6] was 7 ± 2%. It also gave an IC50 [1, 7] of over 100 µM, an IC50 ([1]; IC50 4 h, 4-h preincubation) of 22 ± 1 µM and an activity at 100 µM [1, 8] of 70 ± 10%. For the same compound, the activity at 100 µM [1, 9] was 10 ± 2%, the inhibition at 100 µM ([1]; read-out: enzyme inhibition) was 90 to 93% and the activity at 100 µM [2, 8] was 105 ± 12%. The activity at 100 µM [2, 9] was 99 ± 10%, the EC50 [3] was over 200 µM and the CC50 at 72 h [4] was over 200 µM.
For `O=C1NC(=O)C(Cc2ccccc2)C(=O)N1` [3a, 5-Benzylpyrimidine-2,4,6(1H,3H,5H)-trione], the IC50 [1, 7] was over 100 µM, the IC50 ([1]; IC50 4 h, 4-h preincubation) was over 100 µM and the activity at 100 µM [1, 8] was 90 ± 10%. It also gave an activity at 100 µM [1, 9] of 70 ± 8%, an activity at 100 µM [2, 8] of 109 ± 12% and an activity at 100 µM [2, 9] of 97 ± 9%. For the same compound, the EC50 [3] was over 200 µM and the CC50 at 72 h [4] was over 200 µM.
Work on `O=C1NC(=O)C(Cc2ccc(-c3ccccc3F)[nH]2)C(=O)N1` [3h, 5-((5-(2-Fluorophenyl)-1H-pyrrol-2-yl)methyl)pyrimidine-2,4,6(1H,3H,5H)-trione] yielded an IC50 [1, 7] of over 100 µM, an IC50 ([1]; IC50 4 h, 4-h preincubation) of over 100 µM and an activity at 100 µM [1, 8] of 80 ± 10%. It also gave an activity at 100 µM [1, 9] of 80 ± 20%, an activity at 100 µM [2, 8] of 89 ± 10% and an activity at 100 µM [2, 9] of 91 ± 9%. For the same compound, the EC50 [3] was over 200 µM and the CC50 at 72 h [4] was over 200 µM.
